# Measured values: patent publication US6962713B2, “Spot-on formulations for combating parasites” (Merial, priority 1919, dated 2005)
# Several values for one entry are separate records, joined by “and”; a condition that tells them apart may be missing. Equal values may be shown once.
# Assays:
# [1] = Plasma kinetics of ivermectin after oral administration of Cardomec to dogs; assay type: in vivo, dog
# Procedure: Five male Beagle dogs received a dose of approximately 6 μg.kg^−1 of ivermectin, i.e., one 68 μg Cardomec® tablet per dog. The animals were fasted prior to administration and up to 6 hours after treatment to prevent a possible interaction with food.
# Blood samples were collected at intervals up to 28 days post-dosing. The determination of ivermectin in dog plasma was carried out by HPLC using fluorescence detection after derivatization. The limit of quantification was 100 pg.ml^−1.
# [2] = Plasma kinetics of ivermectin after topical (spot-on) application 250 μg.kg in combination with fipronil to dogs; assay type: in vivo, dog; details: spot-on 0.25% ivermectin + 10% fipronil, 5 dogs
# Procedure: This study was undertaken in order to assess the pharmacokinetic behaviour of ivermectin and fipronil after a topical (spot-on) application of ivermectin in combination with fipronil to the dog.
# Five male Beagle dogs were applied a spot-on formulation combining ivermectin and fipronil at a dose of 0.1 ml.kg^−1, i.e. 250 μg.kg and 10 mg.kg^−1 of ivermectin and fipronil, respectively. Blood samples were collected at intervals up to 28 days post-treatment. The determination of ivermectin in dog plasma was carried out by HPLC, using fluorescence detection, with a limit of quantification of 100 pg.ml^−1. The determination of fipronil and its sulfone metabolite (RM1602) was carried out by HPLC with UV detection with a limit of quantification of 20 ng.ml^−1 for fipronil and RM1602.
# The formulation tested was as follows: […]
# [3] = test system: gastrointestinal nematodes; details: Ivomec subcutaneous, 400 μg.kg^−1 of ivermectin, dog; known; cited from earlier work
# [4] = Cardomec oral 6 μg.kg^−1, 5 fasted dogs, mean
# [5] = Cardomec oral 6 μg.kg^−1, 5 fasted dogs, range over dogs
# [6] = Cardomec oral 6 μg.kg^−1, fasted dogs, individual dogs
substance,measurement,setting,value
ivermectin,"AUC(0-t), Mean",[1]; [4],1534 pg·days/mL
same,"AUC(0-∞), Mean",[1]; [4],1859 pg·days/mL
same,"AUC, mean",[1]; [4],44.604 ng·h/mL
same,"Cmax, Mean",[1]; [4],1362 pg/mL
same,"AUC(0-t), Range",[1]; [5],[187-3246] pg.d.ml^−1
same,"AUC(0-∞), Range",[1]; [5],[382-3789] pg.d.ml^−1
same,"Plasma concentrations of ivermectin, Mean","[1]; Cardomec oral 6 μg.kg^−1, fasted dogs, 0 h, mean of 5 dogs",BLQ (Below the Limit of Quantification (100 pg.ml^−1))
same,"Plasma concentrations of ivermectin, Mean","[1]; Cardomec oral 6 μg.kg^−1, fasted dogs, 0.75 h, mean of 5 dogs (BLQ taken as 0)",119 pg/mL
same,"Plasma concentrations of ivermectin, Mean","[1]; Cardomec oral 6 μg.kg^−1, fasted dogs, 1.5 h, mean of 5 dogs (BLQ taken as 0)",536 pg/mL
same,Plasma concentrations of ivermectin,"[1]; Cardomec oral 6 μg.kg^−1, fasted dogs, 2 h, individual dogs",1132 pg.ml^−1 and 674 pg.ml^−1 and BLQ (Below the Limit of Quantification (100 pg.ml^−1)) and 1817 pg.ml^−1 and 264 pg.ml^−1
same,"Plasma concentrations of ivermectin, Mean","[1]; Cardomec oral 6 μg.kg^−1, fasted dogs, 2 h, mean of 5 dogs (BLQ taken as 0)",777 pg/mL
same,"Plasma concentrations of ivermectin, Mean","[1]; Cardomec oral 6 μg.kg^−1, fasted dogs, 3 h, mean of 5 dogs",1199 pg/mL
same,"Plasma concentrations of ivermectin, Mean","[1]; Cardomec oral 6 μg.kg^−1, fasted dogs, 4 h, mean of 5 dogs",1098 pg/mL
same,"Plasma concentrations of ivermectin, Mean","[1]; Cardomec oral 6 μg.kg^−1, fasted dogs, 6 h, mean of 5 dogs",956 pg/mL
same,"Plasma concentrations of ivermectin, Mean","[1]; Cardomec oral 6 μg.kg^−1, fasted dogs, 8 h, mean of 5 dogs",769 pg/mL
same,"Plasma concentrations of ivermectin, Mean","[1]; Cardomec oral 6 μg.kg^−1, fasted dogs, 10 h, mean of 5 dogs",798 pg/mL
same,"Plasma concentrations of ivermectin, Mean","[1]; Cardomec oral 6 μg.kg^−1, fasted dogs, 12 h, mean of 5 dogs",783 pg/mL
same,"Plasma concentrations of ivermectin, Mean","[1]; Cardomec oral 6 μg.kg^−1, fasted dogs, 24 h, mean of 5 dogs",525 pg/mL
same,"Plasma concentrations of ivermectin, Mean","[1]; Cardomec oral 6 μg.kg^−1, fasted dogs, 32 h, mean of 5 dogs (BLQ taken as 0)",338 pg/mL
same,"Plasma concentrations of ivermectin, Mean","[1]; Cardomec oral 6 μg.kg^−1, fasted dogs, D 2, mean of 5 dogs (ND included as BLQ = 0)",268 pg/mL
same,"Plasma concentrations of ivermectin, Mean","[1]; Cardomec oral 6 μg.kg^−1, fasted dogs, D 3, mean of 5 dogs (ND included as BLQ = 0)",173 pg/mL
same,"Plasma concentrations of ivermectin, Mean","[1]; Cardomec oral 6 μg.kg^−1, fasted dogs, D 4, mean of 5 dogs (ND, BLQ taken as 0)",108 pg/mL
same,"Plasma concentrations of ivermectin, Mean","[1]; Cardomec oral 6 μg.kg^−1, fasted dogs, D 5, mean of 5 dogs, one value above the limit of quantification",BLQ* (Below the Limit of Quantification (100 pg.ml^−1))
same,"Plasma concentrations of ivermectin, Mean","[1]; Cardomec oral 6 μg.kg^−1, fasted dogs, D 7, mean of 5 dogs, one value above the limit of quantification",BLQ* (Below the Limit of Quantification (100 pg.ml^−1))
same,"Plasma concentrations of ivermectin, Mean","[1]; Cardomec oral 6 μg.kg^−1, fasted dogs, D 9, mean of 5 dogs",BLQ (Below the Limit of Quantification (100 pg.ml^−1))
same,"Plasma concentrations of ivermectin, Mean","[1]; Cardomec oral 6 μg.kg^−1, fasted dogs, D 14, mean of 5 dogs",BLQ (Below the Limit of Quantification (100 pg.ml^−1))
same,"Plasma concentrations of ivermectin, Mean","[1]; Cardomec oral 6 μg.kg^−1, fasted dogs, D 21, mean of 5 dogs",BLQ (Below the Limit of Quantification (100 pg.ml^−1))
same,AUC(0-t),[1]; [6],3246 pg·days/mL and 1545 pg·days/mL and 743 pg·days/mL and 1949 pg·days/mL and 187 pg·days/mL
same,AUC(0-∞),[1]; [6],3789 pg·days/mL and 1813 pg·days/mL and 1027 pg·days/mL and 2282 pg·days/mL and 382 pg·days/mL
same,Cmax,[1]; [6],2964 pg/mL and 911 pg/mL and 557 pg/mL and 1955 pg/mL and 422 pg/mL
same,tmax,[1]; [6],3 h (2×) and 12 h (2×) and 4 h
same,t½,[1]; [6],64.5 h and 33.5 h and 37.5 h and 39.2 h and 26.0 h and 64.6 h and 33.6 h and 37.4 h and 39.1 h and 25.9 h
same,"t½, Mean","[2]; 250 μg.kg ivermectin, harmonic mean",5.5 days
same,"AUC(0-t), Mean","[2]; 250 μg.kg ivermectin, mean",19218 pg·days/mL
same,"AUC(0-∞), Mean","[2]; 250 μg.kg ivermectin, mean",22842 pg·days/mL
same,"Tlast, Mean","[2]; 250 μg.kg ivermectin, mean",21 days
same,"tmax, Mean","[2]; 250 μg.kg ivermectin, mean",4.6 days
same,"Cmax, Mean","[2]; 0.1 ml.kg^−1 (250 μg.kg ivermectin), mean",1618 pg/mL
same,effective on gastrointestinal nematodes,[3],effective
